Reference: patent US8835447B2, “Method for treating androgen receptor positive cancers” (priority 2009, dated 2014)

Columns and labels:
[1] = tested on: AR protein in CWR22R cells; assay: Western blot of AR protein levels; assay type: cell-based, human; settings: 10 mM of hits for 36 hrs
Description: FIGS. 3A-3D depict data showing a that reduction of AR protein levels is associated with toxicity of the selected AR inhibitor hits to PCa cells. […] is a photographic representation of Western blotting of lysates from CWR22R cells treated with […] of the indicated hits for 36 hrs. […] GAPDH antibody was used to control for protein loading. FIG. 3B provides a graphical representation of data showing that, unlike parental CWR22R cells, a clone selected in the presence of c52 (c52R) is resistant to the effects of c52. AR protein expression in the c52R clone of CWR22R is not reduced by c52 treatment. Western blotting of parental and c52-resistant CWR22R cells with or without c52 treatment (10 μM for 36 hrs). FIG. 3C provides a graphical representation of data from analyzing cell viability by methylene blue staining 4 days after compound addition. Error bars—standard deviation between triplicates within experiment. FIG. 3D provides a graphical representation of data showing effects of the selected compounds on cell cycle distribution of CWR22R cells measured by propidium iodide staining of cellular DNA content by fluorescent activated cell sorting. Assay was done twice. Error bars—deviation between two measurements.
Western blot analysis. […] Total protein concentration was determined using Dc Protein Assay (BioRad, Hercules, Calif.). […]

[2] = Microsomal stability; assay type: in vitro ADME; settings: 1 hour incubation with rat microsomes
Description: Five hit compounds, representing both the ARTIS and ARTIK categories (c6, c11, c17, c52 and c85), were selected for in vivo tests based on all of the previous assays. Compound c5 was rejected due to very low microsomal stability (<5% after 1 hour incubation with rat microsomes). The toxicity of the compounds was evaluated in a dose escalation assay in which male NIH Swiss mice (n=4) received three sequential intraperitoneal (i.p.) injections of each compound delivered in 3 day intervals. The first dose was 20-fold higher than the in vitro IC50 (20×IC50) for the compound in CWR22R cells recalculated based on mouse weight (see Example 1) and the second and third doses were 50×IC50 and 100×IC50, respectively. On the day after the last injection, half of the mice in each group were sacrificed for gross pathology examination and collection of blood for serum biochemistry assays, which include total protein, glucose, bilirubin, and creatinine levels, activity of liver enzymes, and ion concentrations. The remaining mice were sacrificed and evaluated similarly 7 days after the last compound injection. […] A minor decrease in serum glucose concentration (70-80% of control) was observed on the day after the last compound injection in almost all mice, but glucose levels were normal a week later (data not shown). […]

[3] = tested on: C4-2 tumors; assay: C4-2 xenograft model in nude mice; assay type: in vivo, mouse; settings: 6 daily i.p. injections, 100xIC50 dose
Text: FIGS. 6A and 6B provide data showing anti-tumor activity of the selected hits in mouse models of androgen-independent PCa. FIG. 6A provides a graphical representation of data obtained from i.p. injection of the listed compounds or DMSO vehicle into nude mice carrying subcutaneous (s.c.) C4-2 tumors. Six daily injections were given starting when tumors were around 100 mm3 in size. There were 4-5 mice per group with two tumors per mouse. Asterisks (*) and number signs (#) are placed under the means of measurement in the c6 and c11 groups respectively which are statistically different from the control group by ANOVA test (>99%) B. C52 (9 mg/kg or 18 mg/kg) or DMSO vehicle was injected into the tail vein of nude mice carrying s.c. CWR22R tumors. Five daily injections were given starting when tumors were around 40 mm3 in size. There were 10 mice per group with one tumor per mouse. Asterisks (*) are placed under the means of measurement which are statistically different from the control group by ANOVA test (>99%). Error bars in both FIGS. 6A and B—standard deviation between the size of tumors within a given treatment group.
Testing of the anti-tumor effect of compounds in mice was done according to an IACUC-approved protocol in 8 week old male athymic nude mice from Harlan (Indianapolis, Ind.). For the C4-2 xenograft model, 10^6 C4-2 cells were injected subcutaneously (s.c.) in 2 sites of each mouse in 50% matrigel (BD Biosciences, Bradford, Mass.) in PBS. Upon development of visible tumors, they were measured using digital caliper. Tumor volume was calculated according to the formula: […]. Mice were injected with compounds i.p. daily for 6 days starting on the day when at least one tumor per mouse reached 100 mm^3 in size. Five mice per group were used. For the CWR22R xenograft model, CWR22R cells were inoculated (10^5 cells per inoculum) in 50% matrigel, one site per mouse. Treatment was started when the tumor grew to a size of at least 25 mm^3. Compounds were diluted in captisol (CyDex, Lenexa, Kans.) and delivered intravenously (to reduce “first pass” liver effect) once a day for 5 days. Ten mice per group were used. Mice were monitored daily and tumors were measured every other day. Mice were euthanized according to institutional regulations when the size of tumor reached 1000 mm^3. Comparison of the tumor growth in control and treated mice was done using ANOVA test.
We evaluated the potential anti-tumor effect of the hits using C4-2 and CWR22R xenograft models of androgen-independent PCa in nude mice. Groups of C4-2 tumor-bearing mice (4-5 mice per group, each with two tumors) were given 6 daily i.p. injections of compound (100×IC50 dose) or DMSO vehicle.

CCCn1c2ccccc2c2cc(C(C)=O)ccc21 [c52]
AR protein level in CWR22R cells [1]: complete disappearance of AR protein | microsomal stability, compound left [2]: 17% | C4-2 tumor growth [3]: did not | C4-2 tumor growth ([3]; listed as C52): did not show in vivo efficacy
